# Assay results published in patent publication US5262440A, “Antitumor compositions and methods of treatment” (Eli Lilly and Company, priority 1991, dated 1993).
# Key:
# [1] = phase I clinical studies; cited from earlier work
# [2] = all species (mice, rats, dogs, monkeys); cited from earlier work
# [3] = metabolite of sulofenur; cited from earlier work
# [4] = metabolite of sulofenur; cited from earlier work; remark: listed apart in the source
# [5] = test system: 6C3HED lymphosarcoma (Gardner lymphosarcoma, GLS); assay: Percent inhibition of tumor growth in C3H mice bearing 6C3HED lymphosarcoma (Gardner lymphosarcoma, GLS), oral; format: in vivo; conditions: oral gavage, daily for 8 days
# Description: (§1) The compounds were tested in C3H mice bearing a 6C3HED lymphosarcoma, also known as the Gardner lymphosarcoma (GLS). The 6C3HED lymphosarcoma was obtained from the Division of Cancer Treatment, National Cancer Institute, Tumor Bank, maintained at E. G. and G. Mason Research (Worcester, Mass.). First passage tumor was stored in liquid nitrogen using standard techniques. The transplanted tumor was reestablished from the Tumor Bank every six months or as needed. The tumor was maintained by serial passage twice weekly in C3H mice.
# In the procedures utilized here, the tumor was removed from passage animals and minced into 1- to 3-mm cubic fragments using sterile techniques. Tumor pieces were checked for sterility using both Antibiotic Medium 1 and Brain Heart Infusion (Difco, Detroit, Mich.). Recipient mice were shaved and the tumor pieces were implanted subcutaneously in an axillary site by trochar.
# (§2) Drug therapy on the appropriate schedule was initiated on the day after tumor implantation. The compound being tested was mixed with 2.5% Emulphor EL620 from GAF Corporation (1:40 dilution in 0.9% saline). The total dosage volume for each administration was 2.5 mL. All animals were weighed at the beginning and end of administration of the subject compounds. Food and water were provided ad libitum.
# (§3) Each control group and each dosage level of the treated groups consisted of 10 mice selected at random from the pool of implanted animals. The compounds were administered orally by gavage with the use of an 18-gauge needle. Compounds were dosed daily for 8 days.
# The tumor was measured the day after treatment ended with two dimensional measurements (width and length) of the tumor taken using Vernier calipers. Tumor weights were calculated from these measurements using the following formula:
# Tumor weight (mg)=[tumor length (mm)×[tumor width (mm)]^2 ].div.2
# At least one control group of an equal number of mice was treated with the same volume of 2.5% Emulphor only. The percent inhibition is determined by subtracting the ratio of the mean tumor size of the test group relative to the control group from one and multiplying the result by 100.
# (§4) The results of several experiments in mice bearing a 6C3HED lymphosarcoma when the instant compounds were administered orally are provided in Table I. In the Table, column 1 gives the dose level of the compound mixture of Example 1, column 2 provides the percent inhibition of tumor growth, and column 3 gives the number of mice which died relative to the total number of animals in the group.
# [6] = test system: C3H mice bearing a 6C3HED lymphosarcoma; assay: Toxicity (mice which died relative to total number in group) in C3H mice bearing 6C3HED lymphosarcoma; format: in vivo; conditions: oral gavage, daily for 8 days
# Description: as §1, §2, §3, §4
compound,measurement,setting,value
"O=C(Nc1ccc(Cl)cc1)NS(=O)(=O)c1ccc2c(c1)CCC2 [sulofenur, N-(indan-5-sulfonyl)-N'-(4-chlorophenyl)urea]",major metabolites in patients,[1],1-hydroxy- and 1-ketoindansulfonylureas
same,adsorption,[2],good adsorption
same,metabolism (extent),[2],extensive metabolism
O=C(Nc1ccc(Cl)cc1)NS(=O)(=O)c1ccc2c(c1)CCC2O (stereo not shown) [N-(1-hydroxyindan-5-sulfonyl)-N'-(4-chlorophenyl)urea],retention in humans compared with other species tested,[3],retained longer in humans than in the other species tested
same,contribution of metabolite to adverse effects,[4],contribute to the adverse effects
same,therapeutic activity of metabolite,[4],therapeutically inactive
O=C(Nc1ccc(Cl)cc1)NS(=O)(=O)c1ccc2c(c1)CCC2=O [N-(1-ketoindan-5-sulfonyl)-N'-(4-chlorophenyl)urea],retention in humans compared with other species tested,[3],retained longer in humans than in the other species tested
same,contribution of metabolite to adverse effects,[4],contribute to the adverse effects
same,therapeutic activity of metabolite,[4],therapeutically inactive
N-[[(4-chlorophenyl)amino]carbonyl]-indene-5-sulfonamide (A) and N-[[(4-chlorophenyl)amino]carbonyl]-indene-6-sulfonamide (B) [Example 1],Percent Inhibition (of tumor growth),[5]; dosage 25.0 (unit not given),16%
same,Percent Inhibition (of tumor growth),[5]; dosage 50.0 (unit not given),36%
same,Percent Inhibition (of tumor growth),[5]; dosage 100.0 (unit not given),77%
same,Percent Inhibition (of tumor growth),[5]; dosage 150.0 (unit not given),100%
same,Percent Inhibition (of tumor growth),[5]; dosage 300.0 (unit not given),100%
same,Toxic/Total (mice which died relative to total number of animals in the group),[6]; dosage 25.0 (unit not given),0/10
same,Toxic/Total (mice which died relative to total number of animals in the group),[6]; dosage 50.0 (unit not given),0/10
same,Toxic/Total (mice which died relative to total number of animals in the group),[6]; dosage 100.0 (unit not given),0/10
same,Toxic/Total (mice which died relative to total number of animals in the group),[6]; dosage 150.0 (unit not given),0/10
same,Toxic/Total (mice which died relative to total number of animals in the group),[6]; dosage 300.0 (unit not given),0/10
